This is an account of results in patent US7037644B1, “Means and methods for monitoring non-nucleoside reverse transcriptase inhibitor antiretroviral therapy and guiding therapeutic decisions in the treatment of HIV/AIDS” (ViroLogic, Inc., priority 1998, dated 2006).

Values joined by “and” are separate entries in the source; they are usually repeats but may differ in a detail not shown here. Equal values may be shown once.

One assay deals with A98G-G190S-RTV. Put plainly: Phenotypic susceptibility assay (site directed mutant RTV). The format is cell-based, HIV-1. The following applies: for change in susceptibility (fold, IC50) vs wild type control RTV: A98G and G190S, below 1 = increased susceptibility; for change in susceptibility: mutations at codons 98 and 190. An excerpt:
(§1) The resistance test vectors containing a functional luciferase gene cassette were constructed and host cells were transfected with the resistance test vector DNA. The resistant test vectors contained patient-derived reverse transcriptase and protease sequences that were either susceptible or resistant to the antiretroviral agents, such as nucleoside reverse transcriptase inhibitors, non-nucleoside reverse transcriptase inhibitors and protease inhibitors. The resistance test vector viral particles produced by transfecting the resistance test vector DNA into host cells, either in the presence or absence of protease inhibitors, were used to infect target host cells grown either in the absence of NRTI or NNRTI or in the presence of increasing concentrations of the drug. The amount of luciferase activity produced in infected target host cells in the presence of drug was compared to the amount of luciferase produced in infected target host cells in the absence of drug. Drug resistance was measured as the amount of drug required to inhibit by 50% the luciferase activity detected in the absence of drug (inhibitory concentration 50%, IC50). The IC50 values were determined by plotting percent drug inhibition vs. log10 drug concentration.
(§2) Host cells were seeded in 10-cm-diameter dishes and were transfected several days after plating with resistance test vector plasmid DNA and the envelope expression vector. Transfections were performed using a calcium-phosphate precipitation procedure. The cell culture media containing the DNA precipitate was replaced with fresh medium, from one to 24 hours, after transfection. Cell culture media containing resistance test vector viral particles was harvested one to four days after transfection and was passed through a […] filter before being stored at […]. HIV capsid protein (p24) levels in the harvested cell culture media were determined by an EIA method as described by the manufacturer (SIAC; Frederick, Md.). Before infection, target cells (293 and 293/T) were plated in cell culture media. Control infections were performed using cell culture media from mock transfections (no DNA) or transfections containing the resistance test vector plasmid DNA without the envelope expression plasmid. One to three or more days after infection the media was removed and cell lysis buffer (Promega) was added to each well. Cell lysates were assayed for luciferase activity (FIG. 3). The inhibitory effect of the drug was determined using the following equation: % luciferase inhibition=1−(RLUluc [drug]÷RLUluc)×100 where RLUluc [drug] is the relative light unit of luciferase activity in infected cells in the presence of drug and RLUluc is the Relative Light Unit of luciferase activity in infected cells in the absence of drug. IC50 values were obtained from the sigmoidal curves that were generated from the data by plotting the percent inhibition of luciferase activity vs. the log10 drug concentration. The drug inhibition curves are shown in (FIG. 3).
The A98 and G190S mutations were introduced alone or in combination into the resistance test vector using the mega-primer method for site-directed mutagenesis (Sakar and Sommar, Ibid.). Resistance test vectors containing the A98G mutation (A98G-RTV), the G190S mutation (G190S-RTV) and both mutations (A98G-G190S-RTV) were then tested using the phenotypic assay described earlier and the results were compared to those determined using a genetically defined resistance test vector that was wild type at position 98 and 190. We determined the pattern of phenotypic susceptibility to the NNRTIs, delavirdine, nevirapine and efavirenz, in the three vectors.

The subject of the next assay is Y188C-RTV. The description is as above. The format is cell-based, HIV-1. The following applies: Y188C alone.
Text: as §1, with “Drug resistance was measured as the amount of drug required to inhibit by 50% the luciferase activity detected in the absence of drug (inhibitory concentration 50%, IC50).” left out
(§3) Host cells were seeded in 10-cm-diameter dishes and were transfected several days after plating with resistance test vector plasmid DNA and the envelope expression vector. […] HIV capsid protein (p24) levels in the harvested cell culture media were determined by an EIA method as described by the manufacturer (SIAC; Frederick, Md.). […] The inhibitory effect of the drug was determined using the following equation: % luciferase inhibition=1−(RLUluc [drug]÷RLUluc)×100 where RLUluc [drug] is the relative light unit of luciferase activity in infected cells in the presence of drug and RLUluc is the Relative Light Unit of luciferase activity in infected cells in the absence of drug. […]
The Y188C mutation was introduced into the resistance test vector using the mega-primer method for site-directed mutagenesis (Sakar and Sommar, Ibid.). […] We determined the pattern of phenotypic susceptibility to the NNRTIs., delavirdine, nevirapine and efavirenz, in the Y188C-RTV.

The subject of assay [1] is RTV-300, patient 97-300 (RT K32N, M184V, Y188L). Put plainly: Phenotypic susceptibility assay (patient RTV). The format is cell-based, HIV-1. The following applies: patient RTV pool. How it is done:
The resistance test vectors containing a functional luciferase gene cassette were constructed and host cells were transfected with the resistance test vector DNA. The resistant test vectors contained patient-derived reverse transcriptase and protease sequences that were either susceptible or resistant to the antiretroviral agents, such as nucleoside reverse transcriptase inhibitors, non-nucleoside reverse transcriptase inhibitors and protease inhibitors. […] The IC50 values were determined by plotting percent drug inhibition vs. log10 drug concentration.
as §3

For another assay, the system named is Y181C-RTV. Put plainly: Phenotypic susceptibility assay (site directed mutant RTV). The format is cell-based, HIV-1. The following applies: for change in susceptibility: Y181C, FIG. 5.
Text: as §1, with “Drug resistance was measured as the amount of drug required to inhibit by 50% the luciferase activity detected in the absence of drug (inhibitory concentration 50%, IC50).” left out
as §3
The Y181C and A98G mutations were introduced alone and in combination into resistance test vectors using the mega-primer method for site-directed mutagenesis (Sakar and Sommar, Ibid.). […] We determined the pattern of phenotypic susceptibility to the NNRTIs, delavirdine, neviraphine and efavirenz, in the three vectors. […]

Assay [2] relates to patient 780 virus (RT K103N, P225H). Put plainly: Phenotypic susceptibility assay (patient virus). The format is cell-based, HIV. The following applies: patient 780, FIGS. 8D-8F.
Text: FIGS. 8D, 8E, and 8F. Phenotypic Drug Susceptibility and Resistance Profile: Patients 780. This is a second example of the third pattern of NNRTI susceptibility/resistance. […] This pattern is characterized by a larger reduction of nevirapine suseptibility compared to the reduction of delavirdine susceptibility.
The resistance test vectors containing a functional luciferase gene cassette were constructed and host cells were transfected with the resistance test vector DNA. […] The IC50 values were determined by plotting percent drug inhibition vs. log10 drug concentration.
as §3

Another assay concerns K101E-G190S-RTV. Put plainly: Phenotypic susceptibility assay (site directed mutant RTV). The format is cell-based, HIV-1. The following applies: for change in susceptibility (fold, IC50) vs wild type control RTV: K101E and G190S; for change in susceptibility: mutations at codons 101 and 190 (190S).
Text: as §1, §2
(§4) The K101E and G190S mutations were introduced alone and in combination into resistance test vectors using the megaprimer method for site-directed mutagenesis (Sakar and Sommar, Ibid.). Resistance test vectors containing the K101E mutation (K101E-RTV), the G190S mutation (G190S-RTV) were then tested using the phenotypic assay described earlier and the results were compared to those determined using a genetically defined resistance test vector that was wild type at positions 101 and 190. We determined the pattern of phenotypic susceptibility to the NNRTIs, delavirdine, nevirapine and efavirenz, in all three vectors.

The test system of the next assay is K101E-RTV. The description is as above. The following applies: K101E alone. The format is cell-based, HIV-1.
Text: as §1, §2, §4

`CC(C)Nc1cccnc1N1CCN(C(=O)c2cc3cc(NS(C)(=O)=O)ccc3[nH]2)CC1` [delavirdine]: the “change in susceptibility (fold, IC50) vs wild type control RTV” value (from here on “change in susceptibility (fold, IC50)”) in the assay on A98G-G190S-RTV came out at 0.8 fold; in the assay on K101E-G190S-RTV it was 1.4 fold. Besides, the “change in susceptibility” value is on record as “increase” in the assay with A98G-G190S-RTV, “resistance” in the assay on Y181C-RTV, “reduced susceptibility” in assay [2] and “no change” in the assay on K101E-G190S-RTV. In addition, the “loss of susceptibility (fold, IC50) vs wild type control RTV” value (“loss of susceptibility (fold, IC50)” below) in the assay with Y188C-RTV amounted to 3 fold; in the assay with K101E-RTV it was 5 fold. In addition, the “decrease in susceptibility (fold, IC50)” value in assay [1] is reported as 25 fold.

Consider `O=C1Nc2ccc(Cl)cc2[C@@](C#CC2CC2)(C(F)(F)F)O1` [efavirenz], for which the “change in susceptibility (fold, IC50)” value in the assay on A98G-G190S-RTV and with K101E-G190S-RTV was “greater than 250 fold” each time. Moreover, the “change in susceptibility” value with A98G-G190S-RTV and in the assay on K101E-G190S-RTV was “substantial decrease” each time. The “loss of susceptibility (fold, IC50)” value is 20 fold with Y188C-RTV; 3 fold and 4 fold in the assay with Y181C-RTV (Y181C alone); 5 fold in the assay on K101E-RTV.

As to `Cc1ccnc2c1NC(=O)c1cccnc1N2C1CC1` [nevirapine], the “change in susceptibility (fold, IC50)” value with A98G-G190S-RTV and with K101E-G190S-RTV was “greater than 800 fold” throughout. Further, the “change in susceptibility” value in the assay on A98G-G190S-RTV is “substantial decrease”; in the assay with Y181C-RTV, “resistance”; in assay [2], “reduced susceptibility”; in the assay on K101E-G190S-RTV it was “substantial decrease”. The “loss of susceptibility (fold, IC50)” value with Y188C-RTV is given as 30 fold; with K101E-RTV it was 12 fold. Further, the “decrease in susceptibility (fold, IC50)” value in assay [1] is “greater than 800 fold”.
